Calls of active or inactive are those of the source. No cut-off for these calls is given here.

Experiment [1] deals with T1, Protein cereblon/Wee1-like protein kinase (Homo sapiens) (UniProt P30291+Q96SW2). The experiment in a line: PROTAC activity at CRBN/Wee1 in human HeLa S3 cells assessed as induction of Wee1 degradation at 1 uM measured after 24 hrs by Western blot analysis relative to control. Type of experiment: cell-based.
For experiment [2], the target named is T1, Protein cereblon/Wee1-like protein kinase (Homo sapiens). The experiment in a line: PROTAC activity at CRBN/Wee1 in human PC-3 cells assessed as induction of Wee1 degradation by measuring reduction in CDK1 phosphorylation at Tyr15 residue at 100 nM and above concentrations measured after 4 hrs by Western blot analysis. Type of experiment: cell-based. A general note: In western blotting, separated proteins are transferred to a membrane and probed.

A further experiment has as its system LNCaP. The experiment in a line: Antiproliferative activity against human LNCaP cells assessed as inhibition of cell growth measured after 72 hrs by MTS assay. It is filed as functional, cell-based. (In general: Tetrazolium dyes change colour on reduction, which living cells bring about.)
Experiment [3] addresses T1, Protein cereblon/Wee1-like protein kinase (Homo sapiens). The experiment in a line: PROTAC activity at CRBN/Wee1 in human HeLa S3 cells assessed as induction of Wee1 degradation by measuring reduction in phosphorylation of CDK1 at Tyr15 residue at 1 uM pretreated with AZD1775 for 2 hrs followed by incubation with compound for 5 hrs by Western blot analysis. Type of experiment: cell-based.

For experiment [4] the target is unchanged. Description: PROTAC activity at CRBN/Wee1 in human HeLa S3 cells assessed as induction of Wee1 degradation by measuring reduction in phosphorylation of CDK1 at Tyr15 residue at 100 to 10000 nM measured after 4 hrs by Western blot analysis. Type of experiment: cell-based. The settings on record: dose 100-10000 nM.
For experiment [5] the target is unchanged. Description: PROTAC activity at CRBN/Wee1 in human LNCaP cells assessed as induction of Wee1 degradation at 300 nM and above concentrations measured after 4 hrs by Western blot analysis. Type of experiment: cell-based.
For experiment [6] the target is unchanged. Description: PROTAC activity at CRBN/Wee1 in human HeLa S3 cells assessed as induction of Wee1 degradation at 1 uM pretreated with pomalidomide for 2 hrs followed by incubation with compound for 5 hrs by Western blot analysis. It is filed as cell-based.
The next experiment concerns MCF7. Description: Antiproliferative activity against human MCF7 cells assessed as inhibition of cell growth measured after 72 hrs by MTS assay. It is filed as functional, cell-based. The settings on record: MCF7, 72 h.
For experiment [7], the target named is T1, Protein cereblon/Wee1-like protein kinase (Homo sapiens). Description: PROTAC activity at CRBN/Wee1 in human HeLa S3 cells assessed as induction of Wee1 degradation at 30 to 10000 nM measured after 4 hrs by Western blot analysis. It is filed as cell-based. To be noted: dose 30-10000 nM.
For experiment [8] the target is unchanged. The experiment in a line: PROTAC activity at CRBN/Wee1 in human MCF7 cells assessed as induction of Wee1 degradation at 300 nM and above concentrations measured after 4 hrs by Western blot analysis. Type of experiment: cell-based.
The subject of a further experiment is BT-549. The experiment in a line: Antiproliferative activity against human BT-549 cells assessed as inhibition of cell growth measured after 72 hrs by MTS assay. Type of experiment: functional, cell-based. To be noted: BT-549, 72 h.
Experiment [9] deals with T1, Protein cereblon/Wee1-like protein kinase (Homo sapiens). The experiment in a line: PROTAC activity at CRBN/Wee1 in human BT-549 cells assessed as induction of Wee1 degradation at 100 nM and above concentrations measured after 4 hrs by Western blot analysis. Type of experiment: cell-based.
A further experiment concerns PC-3. The experiment in a line: Antiproliferative activity against human PC-3 cells assessed as inhibition of cell growth measured after 72 hrs by MTS assay. Type of experiment: functional, cell-based. The settings on record: PC-3, 72 h.
For experiment [10], the target named is T1, Protein cereblon/Wee1-like protein kinase (Homo sapiens). Description: PROTAC activity at CRBN/Wee1 in human BT-549 cells assessed as induction of Wee1 degradation by measuring reduction in CDK1 phosphorylation at Tyr15 residue at 100 nM and above concentrations measured after 4 hrs by Western blot analysis. Type of experiment: cell-based.
For experiment [11] the target is unchanged. Description: PROTAC activity at CRBN/Wee1 in human HeLa S3 cells assessed as induction of Wee1 degradation at 1 uM measured after 4 hrs by Western blot analysis. Type of experiment: cell-based.
For experiment [12] the target is unchanged. The experiment in a line: PROTAC activity at CRBN/Wee1 in human LNCaP cells assessed as induction of Wee1 degradation by measuring reduction in CDK1 phosphorylation at Tyr15 residue at 300 nM and above concentrations measured after 4 hrs by Western blot analysis. Type of experiment: cell-based.
The target is the same in experiment [13]. The experiment in a line: PROTAC activity at CRBN/Wee1 in human PC-3 cells assessed as induction of Wee1 degradation at 100 nM and above concentrations measured after 4 hrs by Western blot analysis. It is filed as cell-based.
Experiment [14] shares this target. The experiment in a line: PROTAC activity at CRBN/Wee1 in human BT-549 cells assessed as induction of Wee1 degradation by measuring reduction in CDK1 phosphorylation at Tyr15 residue at 300 nM and above concentrations measured after 4 hrs by Western blot analysis. It is filed as cell-based. To be noted: MCF7.
Experiment [15] shares this target. The experiment in a line: PROTAC activity at CRBN/Wee1 in human HeLa S3 cells assessed as induction of Wee1 degradation by measuring reduction in phosphorylation of CDK1 at Tyr15 residue at 1 uM measured after 24 hrs by Western blot analysis relative to control. Type of experiment: cell-based. Details: scale not given: the % may be the effect or the level left.

The target in experiment [16] is T2, von Hippel-Lindau disease tumor suppressor/Wee1-like protein kinase (Homo sapiens) (UniProt P30291+P40337). Description: PROTAC activity at VHL/Wee1 in human PC-3 cells assessed as induction of Wee1 degradation at 100 nM and above concentrations measured after 4 hrs by Western blot analysis. Type of experiment: cell-based.
Experiment [17] concerns the target T2, von Hippel-Lindau disease tumor suppressor/Wee1-like protein kinase (Homo sapiens). Description: PROTAC activity at VHL/Wee1 in human MCF7 cells assessed as induction of Wee1 degradation at 300 nM and above concentrations measured after 4 hrs by Western blot analysis. Type of experiment: cell-based.
Experiment [18] has the same target. The experiment in a line: PROTAC activity at VHL/Wee1 in human BT-549 cells assessed as induction of Wee1 degradation at 100 nM and above concentrations measured after 4 hrs by Western blot analysis. It is filed as cell-based.
The target is the same in experiment [19]. Description: PROTAC activity at VHL/Wee1 in human LNCaP cells assessed as induction of Wee1 degradation by measuring reduction in CDK1 phosphorylation at Tyr15 residue at 300 nM and above concentrations measured after 4 hrs by Western blot analysis. Type of experiment: cell-based.
The target is the same in experiment [20]. The experiment in a line: PROTAC activity at VHL/Wee1 in human HeLa S3 cells assessed as induction of Wee1 degradation at 30 to 3000 nM measured after 4 hrs by Western blot analysis. It is filed as cell-based. To be noted: dose 30-3000 nM.
The target is the same in experiment [21]. Description: PROTAC activity at VHL/Wee1 in human BT-549 cells assessed as induction of Wee1 degradation by measuring reduction in CDK1 phosphorylation at Tyr15 residue at 100 nM and above concentrations measured after 4 hrs by Western blot analysis. Type of experiment: cell-based.
The target is the same in experiment [22]. The experiment in a line: PROTAC activity at VHL/Wee1 in human BT-549 cells assessed as induction of Wee1 degradation by measuring reduction in CDK1 phosphorylation at Tyr15 residue at 300 nM and above concentrations measured after 4 hrs by Western blot analysis. It is filed as cell-based. The settings on record: MCF7.
Experiment [23] has the same target. The experiment in a line: PROTAC activity at VHL/Wee1 in human HeLa S3 cells assessed as induction of Wee1 degradation at 1 uM pretreated with VH298 for 2 hrs followed by incubation with compound for 5 hrs by Western blot analysis. Type of experiment: cell-based.
Experiment [24] shares this target. Description: PROTAC activity at VHL/Wee1 in human HeLa S3 cells assessed as induction of Wee1 degradation at 1 uM measured after 24 hrs by Western blot analysis relative to control. It is filed as cell-based.
The target is the same in experiment [25]. Description: PROTAC activity at VHL/Wee1 in human PC-3 cells assessed as induction of Wee1 degradation by measuring reduction in CDK1 phosphorylation at Tyr15 residue at 100 nM and above concentrations measured after 4 hrs by Western blot analysis. Type of experiment: cell-based.
Experiment [26] has the same target. Description: PROTAC activity at VHL/Wee1 in human HeLa S3 cells assessed as induction of Wee1 degradation by measuring reduction in phosphorylation of CDK1 at Tyr15 residue at 1 uM measured after 24 hrs by Western blot analysis relative to control. It is filed as cell-based. On the set-up: scale not given: the % may be the effect or the level left.
For experiment [27] the target is unchanged. Description: PROTAC activity at VHL/Wee1 in human LNCaP cells assessed as induction of Wee1 degradation at 300 nM and above concentrations measured after 4 hrs by Western blot analysis. Type of experiment: cell-based.
The target is the same in experiment [28]. The experiment in a line: PROTAC activity at VHL/Wee1 in human HeLa S3 cells assessed as induction of Wee1 degradation by measuring reduction in phosphorylation of CDK1 at Tyr15 residue at 1 uM pretreated with AZD1775 for 2 hrs followed by incubation with compound for 5 hrs by Western blot analysis. Type of experiment: cell-based.
For experiment [29] the target is unchanged. Description: PROTAC activity at VHL/Wee1 in human HeLa S3 cells assessed as induction of Wee1 degradation by measuring reduction in phosphorylation of CDK1 at Tyr15 residue at 30 to 10000 nM measured after 4 hrs by Western blot analysis. Type of experiment: cell-based. To be noted: dose 30-10000 nM.
Experiment [30] has the same target. Description: PROTAC activity at VHL/Wee1 in human HeLa S3 cells assessed as induction of Wee1 degradation by measuring reduction in phosphorylation of CDK1 at Tyr15 residue at higher concentration measured after 4 hrs by Western blot analysis. Type of experiment: cell-based.
Experiment [31] has the same target. The experiment in a line: PROTAC activity at VHL/Wee1 in human HeLa S3 cells assessed as induction of Wee1 degradation at 1 uM measured after 24 to 48 hrs by Western blot analysis. Type of experiment: cell-based. The settings on record: time 24-48 hrs.
Experiment [32] shares this target. Description: PROTAC activity at VHL/Wee1 in human HeLa S3 cells assessed as induction of Wee1 degradation at 1 uM measured after 4 hrs by Western blot analysis. Type of experiment: cell-based.

Take `C=CCn1c(=O)c2cnc(Nc3ccc(N4CCN(CCCC(=O)NCCOCCOCCNc5cccc6c5C(=O)N(C5CCC(=O)NC5=O)C6=O)CC4)cc3)nc2n1-c1cccc(C(C)(C)O)n1` (stereo not given): the Activity is 27% in experiment [1] and 51% in [15]. The outcome in experiment [2], in experiment [3], in experiment [4], in experiment [5], in experiment [6] and in [7] was Active. For the same compound, the outcome in [8], in experiment [9], in [10], in experiment [11], in [12] and in experiment [13] was Active. In addition, the outcome in experiment [14] was Active. Further, the IC50 (as a rule, the concentration needed to halve the response being measured) was 16.6 µM with LNCaP, 14 µM with MCF7, 7.9 µM in the experiment on BT-549 and more than 20 µM in the experiment on PC-3.
In the case of `C=CCn1c(=O)c2cnc(Nc3ccc(N4CCN(CCCC(=O)N[C@H](C(=O)N5C[C@H](O)C[C@H]5C(=O)NCc5ccc(-c6scnc6C)cc5)C(C)(C)C)CC4)cc3)nc2n1-c1cccc(C(C)(C)O)n1`, the outcome in experiment [16], in experiment [17], in [18], in [19], in experiment [20] and in experiment [21] was Active. In addition, the result in experiment [22], in experiment [23], in experiment [25], in experiment [27], in experiment [28] and in experiment [29] was Active. The outcome in experiment [30], in experiment [31] and in experiment [32] was Active. Also, the 50% inhibitory concentration (IC50) is 5.2 µM with LNCaP, 7 µM in the experiment on MCF7, 2.4 µM in the experiment on BT-549 and more than 20 µM with PC-3. For the same compound, the Activity in [24] turned out to be 34%; in experiment [26] it was 49%.
